Patent US7067500B2, “Betaines as adjuvants to susceptibility testing and antimicrobial therapy” (priority 1997, dated 2006)
Counter-ions that a name gives are not always drawn.

Tested on: M. tuberculosis isolates ATCC 27294 and 571/573-BAL
Assay: CB-18 vs. EDTA, BACTEC 12B growth curves
Type: cell-based, Mycobacterium tuberculosis

CCCCCCCCCCCCCCCCCC[N+](C)(C)CCCC(=O)[O-] [CB-18, N-(3-carboxypropyl)-N,N-dimethyl-1-octadecanaminium, inner salt]
effect on growth (571/573-BAL, CB-18 alone 17 μg/ml): suppressed
effect on growth (ATCC 27294, CB-18 alone 17 μg/ml, absence of MgCl2): unaffected
effect on growth (ATCC 27294 and 571/573-BAL, CB-18 17 μg/ml with P/cax): synergistically deleterious
